According to PubChem BioAssay (NCI):
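A five-concentration, 48-hour dose response in 96-well plates underlies each endpoint, interpolated linearly between surrounding concentrations. Here, GI50 denotes the concentration required for 50% inhibition of growth. At the TGI there is no net growth.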

Key:
Assay in all cases: DTP human tumour cell line panel, 48 h
786-0 renal = system: 786-0 renal
A549 NSCLC = system: A549 NSCLC
ACHN renal = system: ACHN renal
CAKI-1 renal = system: CAKI-1 renal
CCRF-CEM leukemia = system: CCRF-CEM leukemia
COLO 205 colon = system: COLO 205 colon
DLD-1 colon = system: DLD-1 colon
DMS 114 small cell lung = system: DMS 114 small cell lung
DMS 273 small cell lung = system: DMS 273 small cell lung
EKVX NSCLC = system: EKVX NSCLC
HCC-2998 colon = system: HCC-2998 colon
HCT-116 colon = system: HCT-116 colon
HCT-15 colon = system: HCT-15 colon
HL-60(TB) leukemia = system: HL-60(TB) leukemia
HOP-18 NSCLC = system: HOP-18 NSCLC
HOP-62 NSCLC = system: HOP-62 NSCLC
HOP-92 NSCLC = system: HOP-92 NSCLC
HT29 colon = system: HT29 colon
IGROV1 ovarian = system: IGROV1 ovarian
KM12 colon = system: KM12 colon
KM20L2 colon = system: KM20L2 colon
LOX IMVI melanoma = system: LOX IMVI melanoma
LXFL 529 NSCLC = system: LXFL 529 NSCLC
M14 melanoma = system: M14 melanoma
M19-MEL melanoma = system: M19-MEL melanoma
MALME-3M melanoma = system: MALME-3M melanoma
MOLT-4 leukemia = system: MOLT-4 leukemia
NCI-H226 lung = system: NCI-H226 lung
NCI-H23 lung = system: NCI-H23 lung
NCI-H460 lung = system: NCI-H460 lung
NCI-H522 lung = system: NCI-H522 lung
OVCAR-3 ovarian = system: OVCAR-3 ovarian
OVCAR-4 ovarian = system: OVCAR-4 ovarian
OVCAR-5 ovarian = system: OVCAR-5 ovarian
OVCAR-8 ovarian = system: OVCAR-8 ovarian
RPMI-8226 leukemia = system: RPMI-8226 leukemia
RXF 393 renal = system: RXF 393 renal
SF-268 CNS = system: SF-268 CNS
SF-295 CNS = system: SF-295 CNS
SF-539 CNS = system: SF-539 CNS
SK-MEL-2 melanoma = system: SK-MEL-2 melanoma
SK-MEL-28 melanoma = system: SK-MEL-28 melanoma
SK-MEL-5 melanoma = system: SK-MEL-5 melanoma
SK-OV-3 ovarian = system: SK-OV-3 ovarian
SN12C renal = system: SN12C renal
SNB-19 CNS = system: SNB-19 CNS
SNB-75 CNS = system: SNB-75 CNS
SNB-78 CNS = system: SNB-78 CNS
SR leukemia = system: SR leukemia
TK-10 renal = system: TK-10 renal
U251 CNS = system: U251 CNS
UACC-257 melanoma = system: UACC-257 melanoma
UACC-62 melanoma = system: UACC-62 melanoma
UO-31 renal = system: UO-31 renal
A498 renal = system: A498 renal
K-562 leukemia = system: K-562 leukemia
SW-620 colon = system: SW-620 colon
XF 498 CNS = system: XF 498 CNS

FC(F)(F)c1nnn[n-]1.[Au+].c1ccc([PH+](c2ccccc2)c2ccccc2)cc1
GI50 (786-0 renal): 1.84 µM
TGI (786-0 renal): 3.55 µM
GI50 (A549 NSCLC): 19.3 µM
TGI (A549 NSCLC): 62.3 µM
GI50 (ACHN renal): 4.63 µM
TGI (ACHN renal): 9.84 µM
GI50 (CAKI-1 renal): 3.6 µM
TGI (CAKI-1 renal): 14.2 µM
GI50 (CCRF-CEM leukemia): 0.449 µM
TGI (CCRF-CEM leukemia): 2.91 µM
GI50 (COLO 205 colon): 2.62 µM
TGI (COLO 205 colon): 6.94 µM
GI50 (DLD-1 colon): 1.95 µM
TGI (DLD-1 colon): 5.04 µM
GI50 (DMS 114 small cell lung): 1.95 µM
TGI (DMS 114 small cell lung): 15 µM
GI50 (DMS 273 small cell lung): 5.62 µM
TGI (DMS 273 small cell lung): 54.7 µM
GI50 (EKVX NSCLC): 5.65 µM
TGI (EKVX NSCLC): 10.4 µM
GI50 (HCC-2998 colon): 10.3 µM
TGI (HCC-2998 colon): 22.3 µM
GI50 (HCT-116 colon): 12.4 µM
TGI (HCT-116 colon): 24.9 µM
GI50 (HCT-15 colon): 2.19 µM
TGI (HCT-15 colon): 6.92 µM
GI50 (HL-60(TB) leukemia): 0.161 µM
TGI (HL-60(TB) leukemia): 0.42 µM
GI50 (HOP-18 NSCLC): 8.67 µM
TGI (HOP-18 NSCLC): 20.5 µM
GI50 (HOP-62 NSCLC): 19.7 µM
TGI (HOP-62 NSCLC): 34.2 µM
GI50 (HOP-92 NSCLC): 2.38 µM
TGI (HOP-92 NSCLC): 4.59 µM
GI50 (HT29 colon): 4.25 µM
TGI (HT29 colon): 13.2 µM
GI50 (IGROV1 ovarian): 2.69 µM
TGI (IGROV1 ovarian): 13.2 µM
GI50 (KM12 colon): 13.2 µM
TGI (KM12 colon): 42.5 µM
GI50 (KM20L2 colon): 6.74 µM
TGI (KM20L2 colon): 16.6 µM
GI50 (LOX IMVI melanoma): 2.26 µM
TGI (LOX IMVI melanoma): 7.64 µM
GI50 (LXFL 529 NSCLC): 1.48 µM
TGI (LXFL 529 NSCLC): 2.82 µM
GI50 (M14 melanoma): 1.78 µM
TGI (M14 melanoma): 4.37 µM
GI50 (M19-MEL melanoma): 2.74 µM
TGI (M19-MEL melanoma): 15.7 µM
GI50 (MALME-3M melanoma): 1.58 µM
TGI (MALME-3M melanoma): 3.35 µM
GI50 (MOLT-4 leukemia): 1.52 µM
TGI (MOLT-4 leukemia): 4.09 µM
GI50 (NCI-H226 lung): 10.9 µM
TGI (NCI-H226 lung): 26.3 µM
GI50 (NCI-H23 lung): 2.79 µM
TGI (NCI-H23 lung): 9.11 µM
GI50 (NCI-H460 lung): 16.6 µM
TGI (NCI-H460 lung): 50.4 µM
GI50 (NCI-H522 lung): 1.33 µM
TGI (NCI-H522 lung): 2.81 µM
GI50 (OVCAR-3 ovarian): 2.89 µM
TGI (OVCAR-3 ovarian): 7.49 µM
GI50 (OVCAR-4 ovarian): 2.09 µM
TGI (OVCAR-4 ovarian): 6.67 µM
GI50 (OVCAR-5 ovarian): 16.1 µM
TGI (OVCAR-5 ovarian): 30 µM
GI50 (OVCAR-8 ovarian): 2.77 µM
TGI (OVCAR-8 ovarian): 9.18 µM
GI50 (RPMI-8226 leukemia): 1.41 µM
TGI (RPMI-8226 leukemia): 4.63 µM
GI50 (RXF 393 renal): 1.52 µM
TGI (RXF 393 renal): 3.11 µM
GI50 (SF-268 CNS): 4.2 µM
TGI (SF-268 CNS): 13.1 µM
GI50 (SF-295 CNS): 11 µM
TGI (SF-295 CNS): 41.3 µM
GI50 (SF-539 CNS): 5.18 µM
TGI (SF-539 CNS): 19.4 µM
GI50 (SK-MEL-2 melanoma): 3.09 µM
TGI (SK-MEL-2 melanoma): 10.8 µM
GI50 (SK-MEL-28 melanoma): 2.49 µM
TGI (SK-MEL-28 melanoma): 7.35 µM
GI50 (SK-MEL-5 melanoma): 2 µM
TGI (SK-MEL-5 melanoma): 7.15 µM
GI50 (SK-OV-3 ovarian): 15.6 µM
TGI (SK-OV-3 ovarian): 29 µM
GI50 (SN12C renal): 6.34 µM
TGI (SN12C renal): 16.4 µM
GI50 (SNB-19 CNS): 4.07 µM
TGI (SNB-19 CNS): 13.6 µM
GI50 (SNB-75 CNS): 8.64 µM
TGI (SNB-75 CNS): 22.1 µM
GI50 (SNB-78 CNS): 6.66 µM
TGI (SNB-78 CNS): > 62.7 µM
GI50 (SR leukemia): 1.3 µM
TGI (SR leukemia): 3.65 µM
GI50 (TK-10 renal): 3.51 µM
TGI (TK-10 renal): 9.27 µM
GI50 (U251 CNS): 3.04 µM
TGI (U251 CNS): 11.1 µM
GI50 (UACC-257 melanoma): 1.82 µM
TGI (UACC-257 melanoma): 7.43 µM
GI50 (UACC-62 melanoma): 2.17 µM
TGI (UACC-62 melanoma): 10.7 µM
GI50 (UO-31 renal): 6.84 µM
TGI (UO-31 renal): 16.7 µM

O=C(CC1=Nc2nnc(CCCCCCCc3nnc4n3C(=O)C(CC(=O)c3ccccc3)=N4)n2C1=O)c1ccccc1
TGI (786-0 renal): > 100 µM
TGI (A498 renal): > 100 µM
TGI (A549 NSCLC): > 100 µM
TGI (ACHN renal): > 100 µM
TGI (CAKI-1 renal): > 100 µM
TGI (CCRF-CEM leukemia): > 100 µM
TGI (COLO 205 colon): > 100 µM
TGI (DLD-1 colon): > 100 µM
TGI (DMS 114 small cell lung): > 100 µM
TGI (EKVX NSCLC): > 100 µM
TGI (HCC-2998 colon): > 100 µM
TGI (HCT-116 colon): > 100 µM
TGI (HCT-15 colon): > 100 µM
TGI (HL-60(TB) leukemia): > 100 µM
TGI (HOP-18 NSCLC): > 100 µM
TGI (HOP-62 NSCLC): > 100 µM
TGI (HOP-92 NSCLC): > 100 µM
TGI (HT29 colon): > 100 µM
TGI (IGROV1 ovarian): > 100 µM
TGI (K-562 leukemia): > 100 µM
TGI (KM12 colon): > 100 µM
TGI (KM20L2 colon): > 100 µM
TGI (LOX IMVI melanoma): > 100 µM
TGI (LXFL 529 NSCLC): > 100 µM
TGI (M14 melanoma): > 100 µM
TGI (M19-MEL melanoma): > 100 µM
TGI (MALME-3M melanoma): > 100 µM
TGI (MOLT-4 leukemia): > 100 µM
TGI (NCI-H226 lung): > 100 µM
TGI (NCI-H23 lung): > 100 µM
TGI (NCI-H460 lung): > 100 µM
TGI (NCI-H522 lung): > 100 µM
TGI (OVCAR-3 ovarian): > 100 µM
TGI (OVCAR-5 ovarian): > 100 µM
TGI (OVCAR-8 ovarian): > 100 µM
TGI (RPMI-8226 leukemia): > 100 µM
TGI (RXF 393 renal): > 100 µM
TGI (SF-268 CNS): > 100 µM
TGI (SF-295 CNS): > 100 µM
TGI (SF-539 CNS): > 100 µM
TGI (SK-MEL-28 melanoma): > 100 µM
TGI (SK-MEL-5 melanoma): > 100 µM
TGI (SK-OV-3 ovarian): > 100 µM
TGI (SN12C renal): > 100 µM
TGI (SNB-19 CNS): > 100 µM
TGI (SNB-75 CNS): > 100 µM
TGI (SR leukemia): > 100 µM
TGI (SW-620 colon): > 100 µM
TGI (TK-10 renal): > 100 µM
TGI (U251 CNS): > 100 µM
TGI (UACC-257 melanoma): > 100 µM
TGI (UACC-62 melanoma): > 100 µM
TGI (UO-31 renal): > 100 µM
TGI (XF 498 CNS): > 100 µM
